Activity calls are given as the source filed them. The rule behind the calls is not given here.
How the values were obtained:
[1] = system: CCRF-CEM; test: Cytoprotective activity against DEM-induced ROS production in human CEM cells treated prior DEM challenge after 16 hrs by DCFH-DA-based flow cytometry relative to alpha-tocopherol; type: functional, cell-based
[2] = system: CCRF-CEM; test: Cytoprotective activity against DEM-induced ROS production in human CEM cells assessed as reduction in lipid peroxidation at 2.5 to 5 uM treated prior DEM challenge measured after 16 hrs by C11-BODIPY581/591-based flow cytometry relative to alpha-tocopherol; type: functional, cell-based
[3] = system: CCRF-CEM; test: Cytoprotective activity against DEM-induced ROS production in human CEM cells assessed as prevention of loss of mitochondrial potential pretreated for 16 hrs prior DEM challenge measured after 120 mins by TMRM-based flow cytometry (reference value: 94%); type: functional, cell-based
[4] = system: CCRF-CEM; test: Cytoprotective activity against DEM-induced ROS production in human CEM cells assessed as cells with intact mitochondrial potential at 1 uM pretreated for 16 hrs prior DEM challenge measured after 120 mins by TMRM-based flow cytometry (reference value: 94%); type: functional
[5] = system: CCRF-CEM; test: Cytoprotective activity against DEM-induced ROS production in human CEM cells at 1 to 5 uM pretreated for 16 hrs prior DEM challenge measured after 5.5 hrs by trypan blue exclusion method; type: functional, cell-based
[6] = system: CCRF-CEM; test: Cytoprotective activity against DEM-induced ROS production in human CEM cells assessed as cells with intact mitochondrial potential at 2.5 uM pretreated for 16 hrs prior DEM challenge measured after 120 mins by TMRM-based flow cytometry (reference value: 94%); type: functional

Structure (SMILES)	Activity [1]	Activity [2]	Activity [3]	Activity [4] [%]	Activity [5]	Activity [6] [%]
CCCCCCCCCCCCCCCCc1nc2c(c(C)c1O)CCN2C.O=C(O)C(F)(F)F	Active	Active	Dose-dependent effect	46	inactive	70
Cc1c(C)c2c(c(C)c1O)CC[C@@](C)(CCC[C@H](C)CCC[C@H](C)CCCC(C)C)O2	Active	Active	–	–	Active	–
CCCCCCCCCCc1nc2c(c(C)c1O)CCN2C.O=C(O)C(F)(F)F	Dose-dependent effect	Active	Dose-dependent effect	80	Active	84
CCCCCCCCCCCCCCCCc1nc2c(c(C)c1OC(C)=O)CCN2C	Active	Active	Dose-dependent effect	50	Active	65
CCCCCc1nc2c(c(C)c1OC(C)=O)CCN2C	inactive	inactive	Dose-dependent effect	30	Active	60
CCCCCCCCCCc1nc2c(c(C)c1OC(C)=O)CCN2C	Dose-dependent effect	Active	Dose-dependent effect	75	Active	82
CCCCCc1nc2c(c(C)c1O)CCN2C.O=C(O)C(F)(F)F	inactive	inactive	Dose-dependent effect	40	Active	63

From ChEMBL document CHEMBL2034902, “Simplified bicyclic pyridinol analogues protect mitochondrial function” (2012)
